Source: ChEMBL document CHEMBL4152321, “Synthesis and antiplasmodial activity of glyco-conjugate hybrids of phenylhydrazono-indolinones and glycosylated 1,2,3-triazolyl-methyl-indoline-2,3-diones” (Eur J Med Chem, 2018)

Columns and labels:
[1] = Selectivity index, ratio of CC50 for African green monkey Vero cells to IC50 for chloroquine-sensitive Plasmodium falciparum 3D7 infected in human erythrocytes; type: toxicity, cell-based; conditions: read-out: Ratio CC50/IC50
Plasmodium falciparum [2] = assay: Antiplasmodial activity against chloroquine-sensitive Plasmodium falciparum 3D7 infected in human erythrocytes after 72 hrs by SYBR Green 1 staining based fluorescence assay; type: functional, organism-based; conditions: 3D7, 72 h
[3] = Cytotoxicity against African green monkey Vero cells after 3 days by resazurin dye based fluorescence assay; type: cell-based; conditions: chlorocebus sabaeus
[4] = Selectivity index, ratio of CC50 for African green monkey Vero cells to IC50 for chloroquine-resistant Plasmodium falciparum K1 infected in human erythrocytes; type: toxicity, cell-based; conditions: read-out: Ratio CC50/IC50
Plasmodium falciparum [5] = assay: Antiplasmodial activity against chloroquine-resistant Plasmodium falciparum K1 infected in human erythrocytes after 72 hrs by SYBR Green 1 staining based fluorescence assay; type: functional, organism-based; conditions: K1, 72 h

| Compound | selectivity ratio [1] | IC50 (Plasmodium falciparum [2]) | CC50 at 72 h [3] | selectivity ratio [4] | IC50 (Plasmodium falciparum [5]) |
| --- | --- | --- | --- | --- | --- |
| CC(=O)C[C@H]1O[C@@H](On2cc(CN3C(=O)/C(=N\Nc4ccc(C#N)cc4)c4ccccc43)nn2)[C@H](OC(C)=O)[C@@H](OC(C)=O)[C@H]1OC(C)=O | 20.6 | 3.67 µM | 75.5 µM | 17.6 | 4.28 µM |
| CC1(C)O[C@H]2O[C@H](Cn3cc(CN4C(=O)/C(=N\Nc5ccccc5)c5ccccc54)nn3)[C@H](O)[C@H]2O1 | 17.6 | 4.67 µM | 82.1 µM | 17.6 | 4.66 µM |
| COc1ccc(N/N=C2\C(=O)N(Cc3cn(O[C@@H]4O[C@H](CO)[C@H](O)[C@H](O)[C@H]4O)nn3)c3ccccc32)cc1 | 22 | 3.46 µM | 76.2 µM | 14.7 | 5.2 µM |
| CC(=O)C[C@H]1O[C@@H](On2cc(CN3C(=O)/C(=N\Nc4cccc(Cl)c4)c4ccccc43)nn2)[C@H](OC(C)=O)[C@@H](OC(C)=O)[C@H]1OC(C)=O | 35.6 | 2.47 µM | 87.9 µM | 45.5 | 1.93 µM |
| O=C1/C(=N\Nc2ccccc2)c2ccccc2N1Cc1cn(O[C@@H]2O[C@H](CO)[C@H](O)[C@H](O)[C@H]2O)nn1 | 17.4 | 4.8 µM | 83.4 µM | 9.6 | 8.68 µM |
| CC(=O)C[C@H]1O[C@@H](On2cc(CN3C(=O)/C(=N\Nc4ccccc4)c4ccccc43)nn2)[C@H](OC(C)=O)[C@@H](OC(C)=O)[C@H]1OC(C)=O | 18.6 | 3.5 µM | 65.2 µM | 15.8 | 4.13 µM |
| CC1(C)O[C@H]2O[C@H](Cn3cc(CN4C(=O)/C(=N\Nc5ccc(C#N)cc5)c5ccccc54)nn3)[C@H](O)[C@H]2O1 | 21.8 | 4.79 µM | 105 µM | 30.8 | 3.4 µM |
| O=C1/C(=N\Nc2cccc(Cl)c2)c2ccccc2N1Cc1cn(O[C@@H]2O[C@H](CO)[C@H](O)[C@H](O)[C@H]2O)nn1 | 12.5 | 6.74 µM | 84.5 µM | 32.2 | 2.62 µM |
| CC1(C)O[C@H]2[C@@H](O1)[C@@H](Cn1cc(CN3C(=O)/C(=N\Nc4ccc(Br)cc4)c4ccccc43)nn1)O[C@@H]1OC(C)(C)O[C@@H]12 | 60.7 | 1.96 µM | 119 µM | 73.9 | 1.61 µM |
| CC1(C)O[C@H]2O[C@H](Cn3cc(CN4C(=O)/C(=N\Nc5ccc(F)cc5)c5ccccc54)nn3)[C@H](O)[C@H]2O1 | 21.2 | 3.08 µM | 83.8 µM | 21 | 3.99 µM |
| COc1ccc(N/N=C2\C(=O)N(Cc3cn(O[C@@H]4O[C@H](CC(C)=O)[C@H](OC(C)=O)[C@H](OC(C)=O)[C@H]4OC(C)=O)nn3)c3ccccc32)cc1 | 49.2 | 1.27 µM | 62.5 µM | 20 | 3.12 µM |
| CC1(C)O[C@H]2O[C@H](Cn3cc(CN4C(=O)/C(=N\Nc5ccc(Br)cc5)c5ccccc54)nn3)[C@H](O)[C@H]2O1 | 18 | 4.05 µM | 72.9 µM | 20.7 | 3.52 µM |
| CC1(C)O[C@H]2[C@@H](O1)[C@@H](Cn1cc(CN3C(=O)/C(=N\Nc4ccc(F)cc4)c4ccccc43)nn1)O[C@@H]1OC(C)(C)O[C@@H]12 | 39.9 | 3.07 µM | 122 µM | 46.4 | 2.64 µM |
| COc1ccc(N/N=C2\C(=O)N(Cc3cn(O[C@@H]4O[C@H](CO)[C@@H](O)[C@H](O)[C@H]4O)nn3)c3ccccc32)cc1 | 24.4 | 3.27 µM | 79.6 µM | 16.3 | 4.89 µM |
| CC(=O)C[C@H]1O[C@@H](On2cc(CN3C(=O)/C(=N\Nc4ccc(F)cc4)c4ccccc43)nn2)[C@H](OC(C)=O)[C@@H](OC(C)=O)[C@H]1OC(C)=O | 32.2 | 2.44 µM | 78.6 µM | 26.2 | 3 µM |
| N#Cc1ccc(N/N=C2\C(=O)N(Cc3cn(O[C@@H]4O[C@H](CO)[C@H](O)[C@H](O)[C@H]4O)nn3)c3ccccc32)cc1 | 12.2 | 7.65 µM | 93.7 µM | 28.4 | 3.3 µM |
| COc1ccc(N/N=C2\C(=O)N(Cc3cn(C[C@H]4O[C@@H]5OC(C)(C)O[C@@H]5[C@H]5OC(C)(C)O[C@H]54)nn3)c3ccccc32)cc1 | 64.2 | 1.64 µM | 105 µM | 46 | 2.29 µM |
| O=C1/C(=N\Nc2ccccc2)c2ccccc2N1Cc1cn(O[C@@H]2O[C@H](CO)[C@@H](O)[C@H](O)[C@H]2O)nn1 | 18.8 | 4.7 µM | 88.5 µM | 10.9 | 8.11 µM |
| CC1(C)O[C@H]2[C@@H](O1)[C@@H](Cn1cc(CN3C(=O)/C(=N\Nc4ccccc4)c4ccccc43)nn1)O[C@@H]1OC(C)(C)O[C@@H]12 | 27.2 | 3.87 µM | 105 µM | 40.2 | 2.62 µM |
| O=C1/C(=N\Nc2ccc(Br)cc2)c2ccccc2N1Cc1cn(O[C@@H]2O[C@H](CO)[C@H](O)[C@H](O)[C@H]2O)nn1 | 25.8 | 3.59 µM | 91.5 µM | 19.5 | 4.68 µM |
| CC(=O)C[C@H]1O[C@@H](On2cc(CN3C(=O)/C(=N\Nc4ccc(Br)cc4)c4ccccc43)nn2)[C@H](OC(C)=O)[C@@H](OC(C)=O)[C@H]1OC(C)=O | 39.9 | 2.09 µM | 83.4 µM | 28.6 | 2.91 µM |
| CC1(C)O[C@H]2O[C@H](Cn3cc(CN4C(=O)/C(=N\Nc5cccc(Cl)c5)c5ccccc54)nn3)[C@H](O)[C@H]2O1 | 15.7 | 4.47 µM | 70 µM | 20.5 | 3.42 µM |
| COc1ccc(N/N=C2\C(=O)N(Cc3cn(C[C@H]4O[C@@H]5OC(C)(C)O[C@@H]5[C@H]4O)nn3)c3ccccc32)cc1 | 19.6 | 3.8 µM | 74.5 µM | 22.7 | 3.28 µM |
| O=C1/C(=N\Nc2ccc(F)cc2)c2ccccc2N1Cc1cn(O[C@@H]2O[C@H](CO)[C@H](O)[C@H](O)[C@H]2O)nn1 | 13.9 | 6.64 µM | 92.1 µM | 28.5 | 3.23 µM |
| CC1(C)O[C@H]2[C@@H](O1)[C@@H](Cn1cc(CN3C(=O)/C(=N\Nc4cccc(Cl)c4)c4ccccc43)nn1)O[C@@H]1OC(C)(C)O[C@@H]12 | 36.2 | 3.23 µM | 117 µM | 47 | 2.49 µM |
